We go through 19 compounds from patent publication US20120165319A1, “INHIBITORS OF INTERLEUKIN-1 BETA CONVERTING ENZYME” (VERTEX PHARMACEUTICALS INCORPORATED, priority 1995, published 2012).

“Also recorded” adds a separate entry of the source. Like-named read-outs stand apart in the source and are kept apart here.

What is called clearance is the rate of elimination divided by the concentration. A word on the inhibition: it is the change of the read-out against control, counted positive when it falls.

Data set [1] in a line: In vivo rat clearance assay. The note with it: for clearance: plasma, iv. In outline: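 Rats cannulated a day beforehand received 10–20 mg/kg by intravenous jugular dosing in propylene glycol/saline with 100 mM sodium bicarbonate. Carotid blood was sampled from 0 to 90 min, and plasma was extracted with acetonitrile/0.1% TFA for HPLC quantification. Clearance from non-linear regression pharmacokinetic analysis.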

Another data set deals with IL-1β, human whole blood. In words: Whole blood assay for IL-1β production. Type of data set: cell-based. In outline: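 Human whole blood collected on Na2EDTA was treated with serially diluted compound in saline and then stimulated with LPS at 5.0 ng/ml final, for 16-18 h at 30 °C, in duplicate or triplicate. Plasma IL-1β was measured by ELISA at 1:200 dilution.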
In data set [2] the test system is IL-1β production, LPS-challenged mice. Nature of the data set: In vivo acute assay for efficacy as anti-inflammatory agent: LPS-induced IL-1β production in mice. Details: species or system mouse. The note with it: for inhibition at 50 mg/kg: Mus musculus, po, compound PO, read-out: percent inhibition of IL-1β production; for inhibition at 50 mg/kg / Inhibition of IL-1β Production, compound administered 0 hr relative to LPS challenge / Inhibition of IL-1β Production, compound administered +1 hr relative to LPS challenge / Inhibition of IL-1β Production, compound administered −1 hr relative to LPS challenge / Inhibition of IL-1β Production, compound administered −2 hr relative to LPS challenge: LPS challenged mice, 50 mg/kg; for Inhibition of IL-1β Production, compound administered 0 hr relative to LPS challenge / Inhibition of IL-1β Production, compound administered +1 hr relative to LPS challenge / Inhibition of IL-1β Production, compound administered −1 hr relative to LPS challenge / Inhibition of IL-1β Production, compound administered −2 hr relative to LPS challenge: PO, * = values obtained in subsequent assays (Table 4). In outline:
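CD1 mice (n=6) were challenged with LPS 20 mg/kg IP and given compound IP in olive oil:DMSO:ethanol (90:5:5) 1 h after LPS, or at the time of challenge for some analogs. Blood was taken 7 h after LPS and serum IL-1β was measured by ELISA. Oral gavage at 50 mg/kg was also tested.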

[3] abbreviates: Homo sapiens, Table 17, read-out: Whole human blood IC50.
[4] abbreviates: Homo sapiens, * = values obtained upon reassay, read-out: Whole human blood IC50.
[5] abbreviates: 0 h, administered 0 h relative to time of LPS challenge.
Setting [6] is: 1 h, administered +1 h relative to time of LPS challenge.
Setting [7] is: 1 h, administered −1 h relative to time of LPS challenge.
Where [8] appears, read: 2 h, administered −2 h relative to time of LPS challenge.

The compound `O=C[C@H](CC(=O)O)NC(=O)CN1C(=O)[C@@H](NC(=O)c2nccc3ccccc23)CN(C(=O)CO)c2ccccc21` [Compound 696, (3S)-3-[(3S)-2-Oxo-3-(isoquinolin-1-oyl)amino-5-hydroxyacetyl-2,3,4,5-tetrahydro-1H-1,5-benzodiazepine-1-acetylamino]-4-oxo-butyric acid] yielded a clearance in data set [1] (Table 17) of 13 mL/min/kg. Moreover, in the data set on IL-1β, human whole blood (setting [3]), the IC50 was determined as 2900 nM.
With `O=C[C@H](CC(=O)O)NC(=O)[C@@H]1CCCN2C(=O)CC[C@H](NC(=O)c3ccc4c(c3)OCO4)C(=O)N12` [Compound 415, [3S(1S,9S)]3-[6,10-Dioxo-9-(3,4-methylenedioxybenzoylamino)-1,2,3,4,7,8,9,10-octahydro-6H-pyridazino[1,2-a][1,2]diazepine-1-carboxamido]-4-oxobutanoic acid], the clearance in data set [1] (10-20 mg/kg) came out at 18 mL/min/kg.
With `CC(C)C(=O)Nc1ccc(C(=O)N[C@H]2CCC(=O)N3CCC[C@@H](C(=O)N[C@H](C=O)CC(=O)O)N3C2=O)cc1` [Compound 484], the clearance in data set [1] (10-20 mg/kg) was 15 mL/min/kg. In addition, the IC50 with IL-1β, human whole blood (setting [4]) was 5000 nM.
Regarding `O=C[C@H](CC(=O)O)NC(=O)[C@@H]1CCCN2C(=O)CC[C@H](NC(=O)c3cccc(Cl)c3)C(=O)N12` [Compound 455], the clearance in data set [1] (10-20 mg/kg) was found to be 54 mL/min/kg. For the same compound, the IC50 is 2600 nM in the data set on IL-1β, human whole blood (* = values obtained upon reassay, read-out: Whole human blood IC50) and 2800 nM in the data set with IL-1β, human whole blood (setting [4]).
`COC(=O)N[C@H]1CCC(=O)N2CCC[C@@H](C(=O)N[C@@H](CC(=O)O)C(=O)CSc3ncccn3)N2C1=O` [Compound 511c, [3S(1S,9S)]3-[6,10-Dioxo-9-(methoxycarbonyl)-amino-1,2,3,4,7,8,9,10-octahydro-6H-pyridazino[1,2-a][1,2]diazepine-1-carboxamido]-5-(2-mercaptopyrimidine)-4-oxopentanoic acid] gave a clearance in data set [1] (Table 17) of 40 mL/min/kg.
In data set [1] (10-20 mg/kg), `O=C(O)C[C@H](NC(=O)[C@@H]1CCCN2C(=O)CC[C@H](NC(=O)c3ccccc3)C(=O)N12)C(=O)COc1cccnc1` [Compound 283, [3S(1S,9S)]3-[9-Benzoylamino-6,10-dioxo-1,2,3,4,7,8,9,10-octahydro-6H-pyridazino[1,2-a][1,2]diazepine-1-carboxamido]-4-oxo-5-(3-pyridyloxy)pentanoic acid] had a clearance of 104 mL/min/kg. Moreover, in the data set on IL-1β, human whole blood (setting [4]), the IC50 came to 450 nM.
In the case of `COc1cc(C(=O)N[C@H]2CCC(=O)N3CCC[C@@H](C(=O)N[C@H](C=O)CC(=O)O)N3C2=O)cc(OC)c1OC` [Compound 417, [3S(1S,9S)]3-[6,10-Dioxo-1,2,3,4,7,8,9,10-octahydro-9-(3,4,5-trimethoxybenzoylamino)-6H-pyridazino[1,2-a][1,2]diazepine-1-carboxamido]-4-oxobutanoic acid], the clearance in data set [1] (10-20 mg/kg) stood at 22 mL/min/kg. Moreover, the IC50 with IL-1β, human whole blood (setting [4]) came out at 6000 nM.
In data set [1] (10-20 mg/kg), `O=C[C@H](CC(=O)O)NC(=O)[C@@H]1CCCN2C(=O)CC[C@H](NC(=O)c3ccsc3)C(=O)N12` [Compound 410] registered a clearance of 20 mL/min/kg. The IC50 in the data set with IL-1β, human whole blood (setting [4]) is 2800 nM.
The matching figures for `COC(=O)N[C@H]1CCC(=O)N2CCC[C@@H](C(=O)N[C@@H](CC(=O)O)C(=O)COC(=O)c3c(C)cccc3C)N2C1=O` [Compound 285, [3S(1S,9S)]5-(2,6-Dimethylbenzoyloxy)-3-[6,10-dioxo-9-(methoxycarbonyl)amino-1,2,3,4,7,8,9,10-octahydro-6H-pyridazino[1,2-a][1,2]diazepine-1-carboxamido]-4-oxopentanoic acid]: 50 mL/min/kg and 1000 nM.
`CS(=O)(=O)N[C@H]1CCC(=O)N2CCC[C@@H](C(=O)N[C@@H](CC(=O)O)C(=O)COC(=O)c3cccc4ccccc34)N2C1=O` [Compound 286, [3S(1S,9S)]3-(6,10-Dioxo-9-methanesulphonylamino-1,2,3,4,7,8,9,10-octahydro-6H-pyridazino[1,2-a][1,2]diazepine-1-carboxamido)-5-(1-naphthoyloxy)-4-oxopentanoic acid]: the “Clearance Rat, i.v.” value in data set [1] (Table 18) amounted to 119 mL/min/kg. Besides, in the data set with IL-1β, human whole blood (Table 18, read-out: Whole human blood IC5O), the IC50 stood at 1600 nM.
Turning to `O=C[C@H](CC(=O)O)NC(=O)[C@@H]1CCCN2C(=O)CCN(NC(=O)c3cc4ccccc4s3)C(=O)N12` [Compound 1053, [3S(4S)]3-[7-(Benzo[b]thiophene-2-carbonyl)amino-6,10-dioxo-1,2,3,4,7,8,9,10-octahydro-6H-pyridazino[1,2-a][1,2,4]triazepine-4-carboxamido]-4-oxobutanoic acid], in data set [1] (Table 17), the clearance amounted to 34 mL/min/kg. For the same compound, the IC50 in the data set with IL-1β, human whole blood (setting [3]) was greater than 20000 nM.
The compound `O=C[C@H](CC(=O)O)NC(=O)[C@@H]1CCCN2C(=O)CC[C@H](NC(=O)c3cccc4ccccc34)C(=O)N12` [Compound 408, [3S(1S,9S)]3-[6,10-Dioxo-9-(naphth-1-oylamino)-1,2,3,4,7,8,9,10-octahydro-6H-pyridazino[1,2-a][1,2]diazepine-1-carboxamido]-4-oxobutanoic acid] displayed a clearance in data set [1] (10-20 mg/kg) of 23 mL/min/kg. Also, the IC50 with IL-1β, human whole blood (setting [4]) worked out at 1000 nM.
Compound `CC(=O)N1C[C@H](NC(=O)c2cc(C)c(O)c(C)c2)C(=O)N(CC(=O)N[C@H](C=O)CC(=O)O)c2ccccc21` [Compound 671, (3S)-3-[(3S)-2-Oxo-3-(3,5-dimethyl-4-hydroxybenzoyl)amino-5-acetyl-2,3,4,5-tetrahydro-1H-1,5-benzodiazepine-1-acetylamino]-4-oxo-butyric acid] showed a clearance in data set [1] (Table 17) of 33.2 mL/min/kg. Further, the IC50 in the data set with IL-1β, human whole blood (setting [3]) was 2500 nM.
For the compound `N#C[C@H](CC(=O)O)NC(=O)[C@@H]1CCCN2C(=O)CC[C@H](NC(=O)c3ccccc3)C(=O)N12` [Compound 232e, [3S(1S,9S)]9-(Benzoylamino)-3-[6,10-dioxo-1,2,3,4,7,8,9,10-octahydro-6H-pyridazino-[1,2-a][1,2]diazepine-1-carboxamido]-3-cyanopropanoic acid], the clearance in data set [1] (10-20 mg/kg) is 26 mL/min/kg.
With `O=C1C[C@H](NC(=O)[C@@H]2CCCN3C(=O)CC[C@H](NC(=O)c4ccccc4)C(=O)N23)C(OCc2ccccc2)O1` (single isomer, unassigned) [Compound 2100n], the inhibition at 50 mg/kg was determined as 64% in data set [2] (setting [5]), 73% in data set [2] (setting [6]), 9% in data set [2] (setting [7]) and 21% in data set [2] (setting [8]). Also, the IC50 in the data set with IL-1β, human whole blood (setting [3]) came out at 4000 nM.
As for `O=C(O)C[C@H](NC(=O)[C@@H]1CCCN2C(=O)CC[C@H](NC(=O)c3ccccc3)C(=O)N12)C(=O)COC(=O)c1c(Cl)cccc1Cl` [Compound 217e, [3S(1S,9S)]3-(9-Benzoylamino-6,10-dioxo-1,2,3,4,7,8,9,10-octahydro-6H-pyridazino[1,2-a][1,2]-diazepine-1-carboxamido)-5-(2,6-dichlorobenzoyloxy)-4-oxopentanoic acid], in data set [2] (LPS-challenged CD1 mice, IP injection one hour after LPS, result in words), the “inhibition of IL-1β secretion/production after IP administration” value is on record as “significant inhibition; also recorded: inhibits IL-1β production”. The IC50 in the data set on IL-1β, human whole blood (setting [4]) came out at 2000 nM.
With `CCOC1OC(=O)C[C@@H]1NC(=O)[C@@H]1CCCN2C(=O)CC[C@H](NC(=O)c3ccccc3)C(=O)N12` (stereo partly drawn) [Compound 2100e, [1S,9S(2RS,3S)]9-Benzoylamino-6,10-dioxo-1,2,3,4,7,8,9,10-octahydro-N-(2-ethoxy-5-oxo-tetrahydro-furan-3-yl)-6H-pyridazino[1,2-a][1,2]-diazepine-1-carboxamide], in data set [2], the “Inhibition of IL-1β Production, compound administered 0 hr relative to LPS challenge” value was 94%; the “Inhibition of IL-1β Production, compound administered +1 hr relative to LPS challenge” value is on record as 66%; the “Inhibition of IL-1β Production, compound administered −1 hr relative to LPS challenge” value is on record as 54%; the “Inhibition of IL-1β Production, compound administered −2 hr relative to LPS challenge” value worked out at 49%. Moreover, the IC50 in the data set on IL-1β, human whole blood (setting [4]) worked out at 600 nM.
`O=C1C[C@H](NC(=O)[C@@H]2CCCN3C(=O)CC[C@H](NC(=O)c4ccccc4)C(=O)N23)C(OCCc2ccccc2)O1` (mixture of isomers) [Compound 2100k, [1S,9S(2RS,3S)]9-Benzoylamino-6,10-dioxo-1,2,3,4,7,8,9,10-octahydro-N-(2-phenethyloxy-5-oxotetrahydrofuran-3-yl)-6H-pyridazino[1,2-a][1,2]diazepine-1-carboxamide]: the inhibition at 50 mg/kg in data set [2] (setting [5]) came to 32%; in data set [2] (setting [6]), 72%; in data set [2] (setting [7]), 50%; in data set [2] (setting [8]), 30%. Besides, the IC50 in the data set on IL-1β, human whole blood (setting [3]) came out at 600 nM.
For `CC(C)(C)OC(=O)C[C@@H](C=O)NC(=O)[C@@H]1CCCN2C(=O)CC[C@H](NC(=O)c3ccccc3)C(=O)N12` [Compound 302, [3S(1S,9S)3-(9-Benzoylamino-6,10-dioxo-1,2,3,4,7,8,9,10-octahydro-6H-pyriazino-[1,2-a][1,2]diazapine-1-carboxamido)-amino]-4-oxobutanoic acid tert-butyl ester], in data set [2], the “Inhibition of IL-1β Production, compound administered 0 hr relative to LPS challenge” value was determined as 21%; the “Inhibition of IL-1β Production, compound administered +1 hr relative to LPS challenge” value is reported as 26%; the “Inhibition of IL-1β Production, compound administered −1 hr relative to LPS challenge” value turned out to be 27%; the “Inhibition of IL-1β Production, compound administered −2 hr relative to LPS challenge” value is given as 0%. Further, the IC50 in the data set with IL-1β, human whole blood (setting [4]) is greater than 20000 nM.
